Experimental data taken from patent US20160346304A1, “AGENT FOR SUSTAINING SATIETY AND METHOD FOR SUSTAINING SATIETY” (JICHI MEDICAL UNIVERSITY, priority 2014, published 2016).

What was measured:
[1] = test system: C57BL/6J male mice; experiment: Food intake in fasted mice after oral gavage or intraperitoneal administration; type: in vivo; settings: for cumulative food intake (energy (kcal)): comparative example, incl. energy of administered sugar; for cumulative food intake (relative value (%)): mice fasted 16 hours
Protocol: As the experimental animal, C57BL/6J male mice were used. The mice were acclimated to the environment by preliminary rearing for 1 week or more in individual cages. After fasting the mice for 16 hours from 18:00 p.m. on the previous day of the experiment, each test solution was orally administered by gavage or intraperitoneally administered to the mice. In each administration route, physiological saline (10 mL/kg) was administered in a control group, and D-psicose (0.3 g/kg, 1 g/kg, or 3 g/kg) was administered in a test group. The concentration of the respective test solutions at this time was […], 10%, and 30%, respectively. Each solution was administered at 9:45 a.m., and from 10:00 a.m., the mice were allowed free access to CE-2 feed (a standard mouse feed with a good nutritional balance manufactured by CLEA Japan, Inc.), and the food intake was measured over time after 0.5 hours, 1 hour, 2 hours, 3 hours, 6 hours, and 24 hours.
Incidentally, as a comparative example, an experiment of oral administration by gavage of D-glucose (1 g/kg and 3 g/kg), which has a sweetness equivalent to D-psicose and has a similar structure, but is metabolized to contribute to energy production, was performed in the same manner.
The results obtained by plotting the elapsed time after administration on the abscissa, and the cumulative food intake (relative value (%)) at each elapsed time on the ordinate are shown in FIG. 1 (oral administration by gavage) and FIG. 2 (intraperitoneal administration). Incidentally, the cumulative food intake (relative value (%)) is expressed as the ratio of the cumulative food intake in each group with the average food intake in the physiological saline group at each time in each experiment performed taken as 100%. The obtained results are expressed as a mean and a standard error. A statistical test was performed by a one-way analysis of variance, and if a significant difference was detected, a Dunnett's test in comparison with the control group was performed. The significance level for the test was set to less than 5% on both sides, and the data was marked with * when the P value was less than 5%, and the data was marked with ** when the P value was less than 1%.
The cumulative food intake (energy (kcal)) after D-glucose (1 g/kg and 3 g/kg) was orally administered by gavage in the comparative example is shown in FIG. 3. […] The notation of the results and the statistical analysis is the same as in FIGS. 1 and 2.

[2] = test system: C57BL/6J male mice; experiment: Conditioned taste aversion test (preference to saccharin solution); type: in vivo; settings: conditioning on day 6, test on day 8
Protocol: As the experimental animal, C57BL/6J male mice which were the same as used in the previous experiment were used. The mice reared in individual cages were given two bottles of water only for 2 hours in a period between 10:00 a.m. and 12:00 p.m. for 5 days, whereby the mice were acclimated to the water restriction schedule. On day 6, a 0.15% saccharin solution was presented for 30 minutes, and thereafter, lithium chloride (3 mmol/kg) was intraperitoneally administered, whereby the mice were made to acquire an aversion to the taste of the saccharin solution (conditioning). In the same manner, a control group in which physiological saline (10 mL/kg) was orally administered and a test group in which D-psicose (1 g/kg or 3 g/kg) was orally administered were prepared. On day 7 serving as a rest day, the above-described water restriction schedule was performed. On day 8 serving as a test day, two bottles, one bottle containing a 0.15% saccharin solution and the other bottle containing water, were simultaneously presented for 30 minutes, and the ratio of preference to the saccharin solution (the intake amount of saccharin/the total intake amount from the two bottles) was determined.
The ratio of preference to the saccharin solution after making the mice to acquire a conditioned taste aversion is shown in FIG. 4. The obtained results are expressed as a mean and a standard error. A statistical test was performed by a one-way analysis of variance, and a Dunnett's test in comparison with the control group was performed. The data was marked with ** when the P value was less than 1%.

[3] = test system: c-Fos; experiment: c-Fos expression (marker of neuronal activation) by immunostaining in nodose ganglion and medullary nucleus tractus solitarius; type: in vivo, mice; settings: oral gavage 1 g/kg, fasted overnight, compared with physiological saline group
Protocol: The activation of “vagal afferent nuron” and “medullary nucleus tractus solitarius”, which is a projection site of the vagal afferent nerves, caused by the oral administration of D-psicose was analyzed based on the expression level of c-Fos, which is a marker of neuronal activation, using an immunostaining method. The c-Fos is a kind of immediate early gene and is an intranuclear protein whose expression level increases with the activation of a nerve and can be utilized as a marker of neuronal activation. The cell bodies of the vagal afferent neurons are all localized in the nodose ganglion, and these vagal afferent neurons are bipolar which project to the peripheral side (many internal organs such as heart, lung, gastrointestinal tract, pancreas, and liver) and the central side (medullary nucleus tractus solitarius).
As the experimental animal, C57BL/6J male mice were used. The mice were acclimated to the environment by preliminary rearing and handling for 1 week or more in individual cages. After fasting the mice overnight, D-psicose (1 g/kg) was orally administered by gavage. […]
The results of the expression level of c-Fos in the nodose ganglion and in the medullary nucleus tractus solitarius in the mice after orally administering D-psicose are shown in FIG. 5. The obtained results are expressed as a mean and a standard error. […]

[4] = test system: C57BL/6J male mice; experiment: Liquid food intake in sham-operated and subdiaphragmatic vagotomized mice; type: in vivo; settings: oral gavage 1 g/kg
Protocol: As the experimental animal, C57BL/6J male mice were used. The mice were divided into the following two groups: a sham-operated group consisting of sham-operated mice; and a subdiaphragmatic vagotomized group consisting of subdiaphragmatic vagotomized mice, and were subjected to the operation, respectively. After a recovery period of one week, the mice were fasted overnight (for 16 hours) on the previous day of the experiment of food intake. Thereafter, each test solution was orally administered by gavage to the mice, and the intake of a liquid food (milk for babies and toddlers) after the administration was examined. As the respective test solutions administered, in both of the sham-operated group and the subdiaphragmatic vagotomized group, physiological saline (10 mL/kg) or D-psicose (1 g/kg) was orally administered by gavage. The concentration of the D-psicose solution at this time was 10%. Each test solution was orally administered by gavage to mice at 9:45 a.m., and from 10:00 a.m., the mice were allowed free access to the liquid food, and the food intake was measured over time.
The cumulative liquid food intake after orally administering D-psicose (1 g/kg) by gavage to the subdiaphragmatic vagotomized mice and the sham-operated mice is shown in FIG. 6. […] The obtained results are expressed as a mean and a standard error. […]

[5] = test system: healthy subjects; experiment: Satiety, hunger and appetite questionnaire (VAS) after breakfast in healthy human subjects; type: in vivo; settings: humans
Protocol: Therefore, in this test, after fasting the subjects from 12 hours before the test day, the subjects were made to ingest either of the test solutions (150 mL) prepared to have the same degree of sweetness by adding 5 g of D-psicose or 10 mg of aspartame which is a high intensity sweetener as a control food. Incidentally, the concentration of the respective test solutions was 3.3% in the D-psicose group and 0.005% in the aspartame group. Further, the ingestion amount of D-psicose of the subjects was 0.071 to 0.096 g (mean: 0.085 g) per kilogram of body weight. After the ingestion, breakfast (sandwich, yogurt, and juice) (total calories: 405 kcal, proteins: 10.2%, fats: 28.4%, carbohydrates: 61.4%) was ingested in 10 minutes. During the test, the subjects were fasted except that they were allowed to free access to only prescribed water.
The questionnaire with respect to appetite was filled out by the evaluation using the VAS (Visual Analog Scale) method and was prepared according to NPL 11. As the questionnaire items, the following three items: satiety, hunger, and appetite were set. In each item, the subjects were made to put a mark on a line with a length of 100 mm at a position most close to the state at that moment, then, the length from the left end to the position where the mark was put was measured with a ruler and converted into a numerical value. The obtained results are expressed as a mean and a standard error. A statistical test was performed using an unpaired Student's t test, and the data was marked with * when the P value was less than 5%, the data was marked with ** when the P value was less than 1%, and the data was marked with *** when the P value was less than 0.1%.

[6] = Onset and duration of satiety after ingestion of the agent; type: in vivo
[7] = cited from earlier work
[8] = as compared with D-glucose and D-fructose (NPL 9); cited from earlier work
[9] = oral administration by gavage, 1 g/kg
[10] = oral administration by gavage, 3 g/kg
[11] = 5 g in 150 mL before breakfast, in comparison with control food (aspartame)

Question: With `O=C[C@H](O)[C@@H](O)[C@H](O)[C@H](O)CO` [D-glucose, reference compound] as the compound, how does the “cumulative food intake (energy (kcal))” value [1, 9] read?
Answer: did not affect food intake

Question: What about the “cumulative food intake (energy (kcal))” value [1, 10] of the same compound?
Answer: did not affect food intake

Question: What does the source list for `O=C(CO)[C@H](O)[C@H](O)[C@H](O)CO` [D-psicose]?
Answer: cumulative food intake (relative value (%)) ([1]; intraperitoneal administration, 1 g/kg): no effect on food intake; cumulative food intake (relative value (%)) ([1]; intraperitoneal administration, 3 g/kg, 0.5 to 6 hours after administration): significantly decreased; cumulative food intake (relative value (%)) ([1]; oral administration by gavage, 0.3 g/kg, any time zone after administration): a change in food intake was not observed; cumulative food intake (relative value (%)) ([1]; oral administration by gavage, 1 g/kg, 0.5 to 6 hours after administration): significantly decreased; cumulative food intake (relative value (%)) ([1]; oral administration by gavage, 3 g/kg, 0.5 to 6 hours after administration): significantly decreased; effective amount to reduce food intake in mice ([1]; oral administration by gavage, mice): 1 g/kg; ratio of preference to the saccharin solution [2, 9]: did not affect the preference to the saccharin solution; ratio of preference to the saccharin solution [2, 10]: did not affect the preference to the saccharin solution; expression level of c-Fos in the medullary nucleus tractus solitarius [3]: significantly increased; expression level of c-Fos in the nodose ganglion [3]: significantly increased; cumulative liquid food intake (g) ([4]; sham-operated group, up to 3 hours after administration): significantly suppressed; cumulative liquid food intake (g) ([4]; subdiaphragmatic vagotomized group): the effect was all lost; hunger (VAS) ([5]; 5 g before breakfast, from immediately after breakfast up to after 4 hours): significantly suppressed; duration of effect of suppressing appetite (VAS) [5, 11]: ≥ 4 h; duration of effect of suppressing hunger (VAS) [5, 11]: ≥ 4 h; satiety after eating (VAS) [5, 11]: sustained; time until return to the state before the ingestion [6]: 24 h; time until the effect is exhibited after the ingestion [6]: about 15 minutes; increase in blood glucose level after eating ([7]; humans, 5 g ingested along with a regular meal (NPL 6, NPL 7)): suppressed; blood glucose level ([7]; ingested alone (NPL 7)): does not increase; blood glucose level after eating ([7]; prediabetic adults, 5 g with breakfast versus 10 mg aspartame, crossover (NPL 6)): significant decrease; absorption in the small intestine [8]: slower

Question: For `[Cl-].[Li+]` [lithium chloride, reference compound], which “ratio of preference to the saccharin solution” value ([2]; intraperitoneal, 3 mmol/kg) is on record?
Answer: significantly decreased
